Test system: T. cruzi intracellular amastigotes in H9c2 cells
Test: Rate-of-Kill (RoK) high-content imaging assay, amastigotes per cell (AM/CELL) and curve descriptors
Assay type: cell-based, Trypanosoma cruzi
Design: key to ME_24h / ME_48h / ME_72h: % reduction in parasite burden (cidal response); t50pct_MCC50 / t50pct_Cmax: unit not given here
Conditions: for ME_24h: 24h; for ME_48h: 48h; for ME_72h: 72h; for t50%_Cmax / tlag_Cmax / t50pct_Cmax: at Cmax; for ME_24h (%): maximum effect at 24 h; for ME_24h (%) / ME_48h (%) / ME_72h (%): RoK assay; for ME_48h (%): maximum effect at 48 h; for ME_72h (%): maximum effect at 72 h; for ME 24h (maximum effect at 24 hours, intracellular amastigotes): maximum percentage of parasite burden reduction reached by any concentration
Method in brief: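 Readouts at each time point are amastigotes per cell and host nuclei count (cytotoxicity), from DRAQ5 high-content imaging. Infection: trypomastigotes on H9c2 at MOI 8 for 18 h. Dosing was 5 μM single point or 11 points, 1/3 steps from 50 μM. Effect scaled between 4 h infected and uninfected controls.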

Row | Compound | ME_24h (figure 5) | ME_48h (figure 5) | ME_72h (figure 5) | MCC50 (RoK curve descriptor) [µM] | MCCE (RoK curve descriptor) [µM] | AM/CELL NORM (Time 4, sheet figure 4 A) | AM/CELL NORM (Time 24, sheet figure 4 A) | AM/CELL NORM (Time 48, sheet figure 4 A) | AM/CELL NORM (Time 72, sheet figure 4 A) | tlag_Cmax [h] | t50pct_Cmax (figure 5) | tlag_Cmax (figure 5) | t50pct_MCC50 (at MCC50, figure 5) | tlag_MCC50 (at MCC50, figure 5) | MCCE (figure 5) | ME_24h (%) | ME_48h (%) | ME_72h (%) | ME 24h (maximum effect at 24 hours, intracellular amastigotes) [%] | MCC50 (figure 5) [µM] | other results
1 | COc1ccc(C2CC(c3ccccc3Cl)=NN2C(=O)CNC(=O)C2CCC2)cc1 (stereo not shown) [TCMDC-143130] | 26.5695 | 65.3197 | 85.0018 | 5.6 | 1.9 | 21.8567 | 26.5695 | 65.3197 | 85.0018 | 4.0 | 48 | 4 | 72 | 4 | 1.852 | 26.6 | 65.3 | 85.0 | 26.5695 | – | t50%_Cmax: 48.0 h; t50%_MCC50 (at MCC50): 72.0 h; tlag_MCC50 (at MCC50): 4.0 h; MCC50 (figure 5, in µM): 5.556
2 | CC(=Cc1ccccc1)CN1CCC(=O)N(Cc2cccnc2)CC1 [TCMDC-143421] | -70.7645 | -276.175 | -1.901 | – | 1.9 | -0.3924 | -98.2079 | -300.018 | -16.9527 | 48.0 | 72 | 48 | 72 | 72 | 1.852 | -70.8 | -276.2 | -1.9 | -70.7645 | 50 | –
3 | COc1cc(C(C)C)c(S(C)(=O)=O)cc1C(=O)N1CCN(c2ccccc2Cl)CC1 [TCMDC-143097] | -95.8223 | -1.8208 | 22.9753 | – | 1.9 | -12.0353 | -95.8223 | -56.5005 | 8.079 | 24.0 | 72 | 24 | 72 | 72 | 1.852 | -95.8 | -1.8 | 23.0 | -95.8223 | 50 | –
4 | Cc1cc2cncn2c(C2CCCCN2C(=O)c2cccs2)n1 (stereo not shown) [TCMDC-143500] | -103.212 | -13.304 | 53.284 | 16.7 | 0.2 | 8.792 | -103.212 | -13.304 | 50.5477 | 24.0 | 72 | 24 | 72 | 24 | 0.2058 | -103.2 | -13.3 | 53.3 | -103.212 | – | t50%_Cmax: 72.0 h; t50%_MCC50 (at MCC50): 72.0 h; tlag_MCC50 (at MCC50): 24.0 h; MCC50 (figure 5, in µM): 16.6667
5 | COc1ccc(CN(C)Cc2ccncc2)cc1-c1ccc(S(=O)(=O)NC2CCC2)s1.O=C(O)C(F)(F)F.O=C(O)C(F)(F)F [TCMDC-143084] | -28.7145 | 25.1182 | 44.4783 | – | 0.6 | -8.521 | -28.7145 | 25.1182 | 44.4783 | 24.0 | 72 | 24 | 72 | 72 | 0.6173 | -28.7 | 25.1 | 44.5 | -28.7145 | 50 | –
6 | CCCN(Cc1ccc(OC)c(OC)c1)Cc1cc(=O)c2c(C)cc(C)cc2[nH]1 [TCMDC-143331] | 53.5839 | 70.4309 | 85.455 | 27.8 | 1.9 | 14.9494 | 52.9561 | 75.3164 | 72.8804 | 4.0 | 24 | 4 | 48 | 4 | 1.852 | 53.6 | 70.4 | 85.5 | 54.2116 | – | ME (maximum effect) in RoK assay (in words): high values in ME at the different times; tlag (in words): short tlag; t50%_Cmax: 24.0 h; t50%_MCC50 (at MCC50): 48.0 h; tlag_MCC50 (at MCC50): 4.0 h; MCC50 (figure 5, in µM): 27.7778
7 | CCOc1ccc(NC(=O)C=Cc2ccc(CC)o2)cc1 [TCMDC-143160] | -214.627 | -667.694 | -988.393 | – | 16.7 | – | – | – | – | 72.0 | 72 | 72 | 72 | 72 | 16.6667 | -214.6 | -667.7 | -988.4 | 0.6973 | 50 | AM/CELL NORM (Time 4, figure 4 A): 1.332; AM/CELL NORM (Time 24, figure 4 A): -214.627; AM/CELL NORM (Time 48, figure 4 A): -667.694; AM/CELL NORM (Time 72, figure 4 A): -988.393
8 | O=C(NC1C(=O)N(c2ccccc2)C1c1cccnc1)c1ccc(Cl)s1 (stereo not shown) [TCMDC-143324] | -26.8888 | -112.607 | -10.0757 | – | 0.07 | -16.6269 | -26.8888 | -112.607 | -155.468 | 72.0 | 72 | 72 | 72 | 72 | 0.06859 | -26.9 | -112.6 | -10.1 | -26.8888 | 50 | –
9 | CCOc1cnn(C)c(=O)c1Nc1ccc(C(=O)NCc2ccc(F)cc2)cc1 [TCMDC-143319] | -74.4049 | -82.6884 | 13.1125 | – | 0.2 | -4.52 | -105.903 | -82.6884 | -13.3312 | 24.0 | 72 | 24 | 72 | 72 | 0.2058 | -74.4 | -82.7 | 13.1 | -74.4049 | 50 | –
10 | CN(C(=O)Nc1ccc2c(c1)CCN(C1CCC1)CC2)c1ccc(C#N)cc1.Cl [TCMDC-143526] | -107.476 | -30.6533 | 30.9234 | – | 1.9 | 4.08 | -107.476 | -30.6533 | 30.9234 | 24.0 | 72 | 24 | 72 | 72 | 1.852 | -107.5 | -30.7 | 30.9 | -107.476 | 50 | –
11 | N#Cc1ccc(S(=O)(=O)N2CCC3(CCN(c4ccccc4)C3=O)CC2)cc1 [TCMDC-143371] | -78.0559 | 40.2473 | 62.6058 | 5.6 | 1.2 | 10.0376 | -56.4995 | 45.4375 | 85.4584 | 36.0 | 72 | 36 | 72 | 48 | 1.235 | -78.1 | 40.3 | 62.6 | -50.5626 | – | t50%_Cmax: 72.0 h; t50%_MCC50 (at MCC50): 72.0 h; tlag_MCC50 (at MCC50): 24.0 h; MCC50 (figure 5, in µM): 27.7778
12 | CN(C)Cc1ccc(-c2ccc(S(=O)(=O)NCC3CCCO3)c(F)c2)cc1.O=C(O)C(F)(F)F (stereo not shown) [TCMDC-143085] | -52.4333 | 20.7837 | 66.9859 | 1.9 | 0.6 | -2.755 | -52.4333 | 10.0788 | 59.3639 | 24.0 | 72 | 24 | 72 | 24 | 0.6173 | -52.4 | 20.8 | 67.0 | -52.4333 | – | t50%_Cmax: 72.0 h; t50%_MCC50 (at MCC50): 72.0 h; tlag_MCC50 (at MCC50): 24.0 h; MCC50 (figure 5, in µM): 1.852

Reference: publication PMC8318231, “Rate-of-Kill (RoK) assays to triage large compound sets for Chagas disease drug discovery: Application to GSK Chagas Box” (PLoS Neglected Tropical Diseases, 2021)
